These results are taken from ChEMBL document CHEMBL5729403, “Small molecule modulators of the BTB domain of Keap1” (2022).

This test can be described thus: HEK293 luciferase: Purpose of the AssayThe purpose of this assay is to identify small molecule inhibitors of Keap1, preventing Keap1 binding to Nrf2, and thus activating the Nrf2 signalling pathway in HEK-293 ARE firefly luciferase transiently transfected cells. HEK-293 cells express wild-type Keap1 protein and therefore have low constitutive levels of Nrf2 protein and Nrf2-dependent transcription. […] When Keap1 is inhibited, Nrf2 signalling is activated, and there is an increase in luciferase expression and light emission.Assay WorkflowCryopreserved HEK ARE luciferase cells were rapidly thawed in a 37° C. water bath and resuspended in assay culture medium (DMEM, 10% FCS, 2 mM L-glutamine). The cell suspension was pelleted by centrifugation ([…]; 300 g) using a Heraeus benchtop centrifuge. Supernatant was removed and the pellet was gently resuspended in 5 mL culture medium per vial. Cell viability and cell number was measured using an Invitrogen Countess automated cell counter (typical viability 80%), and cells were diluted to a density of 5.0×10^5 cells/mL.Cells were then plated out into white 384-well plates (Greiner 781080) using a Multidrop Combi, 20 μL/well, to give 10,000 cells/well. As appropriate, test compounds had been added to wells prior to dispensing cells using an Echo 555 acoustic dispenser (Labcyte). Plates were left at room temperature for ˜10 min to promote even cell settling across the plate before incubation for 18 h at 37° C., 95% humidity and 5% CO2.After 18 h incubation, plates were removed from the incubator and allowed to cool to room temperature for 30 min, before 10 μL per well SteadyGlo reagent detection reagent was added (as per manufacturer's instructions, 10 min before required 10 mL room temperature buffer was added to one vial of lyophilised substrate and inverted several times to fully dissolve). Plates were then incubated in the dark for 30 min before reading on an Envision plate reader.Preparation of Compounds for ScreeningCompounds were acoustically dispensed using a Labcyte Echo, using a 10 pt dose curve with a top concentration of 100 μM. Assay wells were backfilled with DMSO to a total of 60 nL to maintain 0.3% (v/v) DMSO through the assay.Data Analysis Software and Calculation of ResultsThe Stimulator signal was defined using 30 μM tert-butyl hydroquinone (tBHQ) and the Neutral signal by DMSO vehicle control. All calculations were performed using GeneData.
As to `COC1(c2ccc(C)cc2)C=C(C#N)C(=O)C(C)(C)C1` (centres undefined), the EC50 is 309 nM.

Turning to `CCc1cccc(C2(OC)C=C(C#N)C(=O)C(C)(C)C2)n1` (centres undefined), the EC50 is greater than 30000 nM.

With `COC1(c2cccc(-c3ccccc3)n2)C=C(C#N)C(=O)C(C)(C)C1` (centres undefined), the EC50 is 10000 nM.

Turning to `COC1(c2cccc(C)n2)C=C(C#N)C(=O)C(C)(C)C1` (centres undefined), the 50% effective concentration (EC50) is 269 nM.
